Holding throughout (type): functional
Assay [1] deals with Klebsiella pneumoniae. Nature of the assay: Antibacterial activity against ESBL positive Klebsiella pneumoniae ATCC 700603 assessed as inhibition of bacterial growth by CLSI based micro broth double dilution method.
For assay [2], the system named is Klebsiella pneumoniae. Nature of the assay: Antibacterial activity against ESBL negative Klebsiella pneumoniae 7 assessed as inhibition of bacterial growth by CLSI based micro broth double dilution method.
Assay [3] relates to Klebsiella pneumoniae. Nature of the assay: Antibacterial activity against ESBL negative Klebsiella pneumoniae 16-2 assessed as inhibition of bacterial growth by CLSI based micro broth double dilution method.
Assay [4] has as its system Streptococcus pyogenes. Nature of the assay: Antibacterial activity against erythromycin-sensitive Streptococcus pyogenes ATCC 19615 assessed as inhibition of bacterial growth by CLSI based micro broth double dilution method.
Assay [5] concerns Streptococcus pyogenes. Description: Antibacterial activity against erythromycin-resistant Streptococcus pyogenes 12-1 assessed as inhibition of bacterial growth by CLSI based micro broth double dilution method.
Assay [6] has as its system Enterococcus faecalis. Nature of the assay: Antibacterial activity against vancomycin-sensitive Enterococcus faecalis […] assessed as inhibition of bacterial growth by CLSI based micro broth double dilution method.
Assay [7] deals with Enterococcus faecalis. Description: Antibacterial activity against vancomycin-sensitive Enterococcus faecalis 16-6 assessed as inhibition of bacterial growth by CLSI based micro broth double dilution method.
In assay [8] the test system is Enterococcus faecalis. Nature of the assay: Antibacterial activity against vancomycin-resistant Enterococcus faecalis ATCC 51575 assessed as inhibition of bacterial growth by CLSI based micro broth double dilution method.
In assay [9] the test system is Enterococcus faecalis. Nature of the assay: Antibacterial activity against vancomycin-resistant Enterococcus faecalis ATCC 51299 assessed as inhibition of bacterial growth by CLSI based micro broth double dilution method.
The subject of assay [10] is Streptococcus pneumoniae. Nature of the assay: Antibacterial activity against erythromycin-sensitive Streptococcus pneumoniae ATCC 49619 assessed as inhibition of bacterial growth by CLSI based micro broth double dilution method.
The test system of assay [11] is Streptococcus pneumoniae. Nature of the assay: Antibacterial activity against erythromycin-resistant Streptococcus pneumoniae 12-3 assessed as inhibition of bacterial growth by CLSI based micro broth double dilution method.
Assay [12] has as its system Escherichia coli. Nature of the assay: Antibacterial activity against ESBL-negative Escherichia coli ATCC 25922 assessed as inhibition of bacterial growth by CLSI based micro broth double dilution method.
In assay [13] the test system is Escherichia coli. Description: Antibacterial activity against Escherichia coli 16-7 assessed as inhibition of bacterial growth by CLSI based micro broth double dilution method.
Assay [14] has as its system Escherichia coli. Description: Antibacterial activity against ESBL-positive Escherichia coli ATCC 35218 assessed as inhibition of bacterial growth by CLSI based micro broth double dilution method.
Assay [15] has as its system Staphylococcus epidermidis. Description: Antibacterial activity against methicillin-sensitive Staphylococcus epidermidis ATCC 12228 assessed as inhibition of bacterial growth by CLSI based micro broth double dilution method.
Assay [16] relates to Staphylococcus epidermidis. Description: Antibacterial activity against methicillin-sensitive Staphylococcus epidermidis 16-4 assessed as inhibition of bacterial growth by CLSI based micro broth double dilution method.
Assay [17] deals with Staphylococcus aureus. Nature of the assay: Antibacterial activity against methicillin-sensitive Staphylococcus aureus ATCC 29213 assessed as inhibition of bacterial growth by CLSI based micro broth double dilution method.
The test system of assay [18] is Staphylococcus aureus. Nature of the assay: Antibacterial activity against methicillin-sensitive Staphylococcus aureus 15 assessed as inhibition of bacterial growth by CLSI based micro broth double dilution method.
The subject of assay [19] is Staphylococcus aureus. Nature of the assay: Antibacterial activity against methicillin-sensitive Staphylococcus aureus 16-1 assessed as inhibition of bacterial growth by CLSI based micro broth double dilution method.
Assay [20] relates to Pseudomonas aeruginosa. Description: Antibacterial activity against Pseudomonas aeruginosa ATCC 27853 assessed as inhibition of bacterial growth by CLSI based micro broth double dilution method.
The subject of assay [21] is Pseudomonas aeruginosa. Description: Antibacterial activity against Pseudomonas aeruginosa PAO1 assessed as inhibition of bacterial growth by CLSI based micro broth double dilution method.
Assay [22] relates to Pseudomonas aeruginosa. Description: Antibacterial activity against Pseudomonas aeruginosa 16-11 assessed as inhibition of bacterial growth by CLSI based micro broth double dilution method.
Assay [23] has as its system Streptococcus pyogenes. Nature of the assay: Potency index, ratio of telithromycin MIC to test compound MIC for antibacterial activity against erythromycin-resistant Streptococcus pyogenes 12-1 assessed as inhibition of bacterial growth by CLSI based micro broth double dilution method.
For assay [24], the system named is Streptococcus pneumoniae. Nature of the assay: Potency index, ratio of telithromycin MIC to test compound MIC for antibacterial activity against erythromycin-resistant Streptococcus pneumoniae 12-3 assessed as inhibition of bacterial growth by CLSI based micro broth double dilution method.

For orientation: MIC means the lowest concentration that inhibits growth of the organism.

Each structure is given as a SMILES string. Values after ≈ are worked out from the molar mass of the structure shown.

As to `CC[C@H]1OC(=O)[C@@](C)(F)C(=O)[C@H](C)[C@@H](O[C@@H]2O[C@H](C)C[C@H](N(C)C)[C@H]2O)[C@@](C)(OC)C[C@@H](C)C(=O)[C@H](C)[C@H]2N(CCCn3ccc(=O)c4ccccc43)C(=O)O[C@]12C`, the MIC with Klebsiella pneumoniae [1] is more than 32 µg/mL; with Klebsiella pneumoniae [2] it was more than 32 µg/mL; with Klebsiella pneumoniae [3], more than 32 µg/mL; in the assay on Streptococcus pyogenes [4], 0.03 µg/mL (≈ 0.0368 µM); in the assay on Streptococcus pyogenes [5], more than 32 µg/mL; in the assay on Enterococcus faecalis [6], 0.06 µg/mL (≈ 0.0735 µM). Further, the MIC in the assay with Enterococcus faecalis [7] was more than 32 µg/mL; with Enterococcus faecalis [8], more than 32 µg/mL; with Enterococcus faecalis [9] it was more than 32 µg/mL; with Streptococcus pneumoniae [10], not above 0.016 µg/mL; with Streptococcus pneumoniae [11] it was 0.25 µg/mL (≈ 0.306 µM); in the assay on Escherichia coli [12], 16 µg/mL (≈ 19.6 µM). For the same compound, the MIC in the assay with Escherichia coli [13] was more than 32 µg/mL; in the assay with Escherichia coli [14], more than 32 µg/mL; in [15], 0.06 µg/mL (≈ 0.0735 µM); in assay [16] it was 0.25 µg/mL (≈ 0.306 µM); in the assay with Staphylococcus aureus [17], 0.12 µg/mL (≈ 0.147 µM); in the assay with Staphylococcus aureus [18], 0.12 µg/mL (≈ 0.147 µM). The minimum inhibitory concentration (MIC) in the assay with Staphylococcus aureus [19] is 0.12 µg/mL (≈ 0.147 µM); in the assay with Pseudomonas aeruginosa [20] it was more than 32 µg/mL; with Pseudomonas aeruginosa [21] it was more than 32 µg/mL; in the assay with Pseudomonas aeruginosa [22] it was more than 32 µg/mL.
`CCCCN(CCCN1C(=O)O[C@]2(C)[C@@H](CC)OC(=O)[C@@](C)(F)C(=O)[C@H](C)[C@@H](O[C@@H]3O[C@H](C)C[C@H](N(C)C)[C@H]3O)[C@@](C)(OC)C[C@@H](C)C(=O)[C@H](C)[C@@H]12)c1ccnc2ccccc12`: the minimum inhibitory concentration (MIC) in the assay on Klebsiella pneumoniae [1] was 32 µg/mL (≈ 36.7 µM); in the assay with Klebsiella pneumoniae [2], more than 32 µg/mL; in the assay on Klebsiella pneumoniae [3], more than 32 µg/mL; in the assay on Streptococcus pyogenes [4], 0.015 µg/mL (≈ 0.0172 µM); in the assay with Streptococcus pyogenes [5] it was 2 µg/mL (≈ 2.3 µM); in the assay with Enterococcus faecalis [6] it was 0.03 µg/mL (≈ 0.0344 µM). The MIC in the assay with Enterococcus faecalis [7] was 2 µg/mL (≈ 2.3 µM); in the assay with Enterococcus faecalis [8], 1 µg/mL (≈ 1.15 µM); with Enterococcus faecalis [9] it was 1 µg/mL (≈ 1.15 µM); in the assay with Streptococcus pneumoniae [10], not above 0.016 µg/mL; with Streptococcus pneumoniae [11], not above 0.016 µg/mL; in the assay with Escherichia coli [12] it was 32 µg/mL (≈ 36.7 µM). Moreover, the MIC with Escherichia coli [13] was 32 µg/mL (≈ 36.7 µM); in the assay on Escherichia coli [14], 32 µg/mL (≈ 36.7 µM); in assay [15] it was 0.12 µg/mL (≈ 0.138 µM); in assay [16] it was 0.25 µg/mL (≈ 0.287 µM); with Staphylococcus aureus [17], 1 µg/mL (≈ 1.15 µM); with Staphylococcus aureus [18], 0.06 µg/mL (≈ 0.0689 µM). Further, the minimum inhibitory concentration (MIC) amounted to 0.12 µg/mL (≈ 0.138 µM) in the assay with Staphylococcus aureus [19], 32 µg/mL (≈ 36.7 µM) with Pseudomonas aeruginosa [20], 16 µg/mL (≈ 18.4 µM) with Pseudomonas aeruginosa [21] and 16 µg/mL (≈ 18.4 µM) in the assay on Pseudomonas aeruginosa [22]. Besides, the Ratio worked out at 32 in the assay on Streptococcus pyogenes [23] and 4 with Streptococcus pneumoniae [24].
With `CC[C@H]1OC(=O)[C@H](C)[C@@H](O[C@H]2C[C@@](C)(OC)[C@@H](O)[C@H](C)O2)[C@H](C)[C@@H](O[C@@H]2O[C@H](C)C[C@H](N(C)C)[C@H]2O)[C@](C)(OC)C[C@@H](C)C(=O)[C@H](C)[C@@H](O)[C@]1(C)O` [CLARITHROMYCIN], the minimal inhibitory concentration (MIC) in the assay on Klebsiella pneumoniae [1] is more than 64 µg/mL; in the assay on Klebsiella pneumoniae [2], more than 64 µg/mL; in the assay with Klebsiella pneumoniae [3], more than 64 µg/mL; with Streptococcus pyogenes [4], 0.03 µg/mL (≈ 0.0401 µM); in the assay on Streptococcus pyogenes [5], 64 µg/mL (≈ 85.6 µM); with Enterococcus faecalis [6], 2 µg/mL (≈ 2.67 µM). Besides, the MIC in the assay on Enterococcus faecalis [7] was more than 64 µg/mL; with Enterococcus faecalis [8], more than 64 µg/mL; with Enterococcus faecalis [9], more than 64 µg/mL; in the assay with Streptococcus pneumoniae [10], 0.12 µg/mL (≈ 0.16 µM); with Streptococcus pneumoniae [11], more than 32 µg/mL; with Escherichia coli [12], 32 µg/mL (≈ 42.8 µM). The minimal inhibitory concentration (MIC) was more than 64 µg/mL in the assay on Escherichia coli [13]; more than 64 µg/mL in the assay with Escherichia coli [14]; 0.12 µg/mL (≈ 0.16 µM) in assay [15]; 64 µg/mL (≈ 85.6 µM) in assay [16]; 0.25 µg/mL (≈ 0.334 µM) in the assay with Staphylococcus aureus [17]; 0.25 µg/mL (≈ 0.334 µM) with Staphylococcus aureus [18]. The MIC was 0.25 µg/mL (≈ 0.334 µM) in the assay on Staphylococcus aureus [19], more than 64 µg/mL in the assay on Pseudomonas aeruginosa [20], more than 64 µg/mL in the assay on Pseudomonas aeruginosa [21] and more than 64 µg/mL in the assay on Pseudomonas aeruginosa [22].
On to `CC[C@H]1OC(=O)[C@H](C)C(=O)[C@H](C)[C@@H](O[C@@H]2O[C@H](C)C[C@H](N(C)C)[C@H]2O)[C@](C)(OC)C[C@@H](C)C(=O)[C@H](C)[C@H]2N(CCCCn3cnc(-c4cccnc4)c3)C(=O)O[C@]12C` [TELITHROMYCIN], for which the MIC is more than 64 µg/mL in the assay with Klebsiella pneumoniae [1]; more than 64 µg/mL in the assay on Klebsiella pneumoniae [2]; more than 64 µg/mL in the assay on Klebsiella pneumoniae [3]; 0.06 µg/mL (≈ 0.0739 µM) in the assay on Streptococcus pyogenes [4]; 64 µg/mL (≈ 78.8 µM) in the assay on Streptococcus pyogenes [5]; 0.12 µg/mL (≈ 0.148 µM) in the assay with Enterococcus faecalis [6]. The minimum inhibitory concentration (MIC) in the assay on Enterococcus faecalis [7] was determined as 16 µg/mL (≈ 19.7 µM); with Enterococcus faecalis [8] it was 16 µg/mL (≈ 19.7 µM); with Enterococcus faecalis [9], 16 µg/mL (≈ 19.7 µM); in the assay on Streptococcus pneumoniae [10], 0.03 µg/mL (≈ 0.0369 µM); in the assay with Streptococcus pneumoniae [11], 0.06 µg/mL (≈ 0.0739 µM); in the assay on Escherichia coli [12], 64 µg/mL (≈ 78.8 µM). In addition, the minimal inhibitory concentration (MIC) in the assay with Escherichia coli [13] was more than 64 µg/mL; in the assay on Escherichia coli [14], more than 64 µg/mL; in assay [15] it was 0.25 µg/mL (≈ 0.308 µM); in [16] it was 1 µg/mL (≈ 1.23 µM); in the assay on Staphylococcus aureus [17] it was 0.25 µg/mL (≈ 0.308 µM); in the assay with Staphylococcus aureus [18], 0.25 µg/mL (≈ 0.308 µM). For the same compound, the minimal inhibitory concentration (MIC) is 0.25 µg/mL (≈ 0.308 µM) with Staphylococcus aureus [19], more than 64 µg/mL in the assay on Pseudomonas aeruginosa [20], more than 64 µg/mL in the assay with Pseudomonas aeruginosa [21] and more than 64 µg/mL in the assay on Pseudomonas aeruginosa [22].

Values taken from ChEMBL document CHEMBL5236651, “Synthesis and antibacterial activity of novel 2‑fluoro ketolide antibiotics with 11,12‑quinoylalkyl side chains” (2023).
